According to US20250049930A1, “PROTAC MOLECULES TARGETING FOXP3 AND USES THEREOF” (CEDARS-SINAI MEDICAL CENTER, priority 2022, published 2025):
Residues, ends and D or L forms follow the SMILES beside them. *: point of attachment. X1 = O=C1CCC(N2C(=O)c3cccc(*)c3C2=O)C(=O)N1; PEG4 = NCCOCCOCCOCCOCCC(=O)O

Test system: Tregs
Assay: Treg immunosuppression co-culture assay with human PBMC (CFSE dilution, IFNγ, TNFα)
Format: cell-based
Settings: human CD4+ PBMC treated 72 hours (10 μM), co-cultured with CD4− PBMC stimulated with αCD3 and αCD28; difference to P60 significant
Procedure: FIGS. 7A-7C depict that PF decreases FoxP3 and the immunosuppressive function of human CD4+ cells. Human peripheral blood mononuclear cells (PBMC) were treated in vitro with PF (10 μM) or various control drugs (10 μM) for 3 days (FIG. 7A). PMA 10 ng/ml and Ionomycin 2 μg/ml were added during PF treatment to induce FoxP3 (FIG. 7A). Resulting cells were gated on CD4 and assessed for FoxP3 expression by flow cytometry. To treat Tregs, CD4+ PBMC were isolated and treated with PF or various controls for 72 hours. […] CD8 proliferation was measured using a CFSE dilution assay. To assess CD8+ effector cells, CD4 negative splenocytes were CFSE labeled and CFSE dilution was measured in CD8+ cells by flow cytometry (FIG. 7B). In the same experiment, CD8+ cells were assessed for activation by gating on CD8 and assessing IFNγ or TNFα by flow cytometry (FIG. 7C). […]
Human peripheral blood mononuclear cells (PBMC) were treated with phorbol 12-myristate 13-acetate (PMA) (10 ng/ml) and Ionomycin (2 μg/ml) to increase FoxP3 expression. […] CD8 proliferation was measured using a CFSE dilution assay. Immune activation was assessed by measuring TNFα or IFNγ in CD8+ or CD4+ T cells using flow cytometry.
P60 was designed to bind both mouse and human FoxP3. Therefore, we evaluated PF using human peripheral blood mononuclear cells (PBMC). […] Resulting cells were gated on CD4 and assessed for FoxP3 expression by flow cytometry. […]

`CSCC[C@H](NC(=O)[C@H](C)NC(=O)[C@H](Cc1ccccc1)NC(=O)[C@H](Cc1ccccc1)NC(=O)[C@@H]1CCCN1C(=O)[C@H](Cc1c[nH]c2ccccc12)NC(=O)[C@H](CCSC)NC(=O)[C@H](CCCCN)NC(=O)[C@H](CCCNC(=N)N)NC(=O)[C@H](Cc1ccccc1)NC(=O)[C@H](CO)NC(=O)[C@H](CCC(N)=O)NC(=O)[C@H](Cc1ccccc1)NC(=O)[C@H](CC(=O)O)NC(=O)[C@H](CCCNC(=N)N)NC(=O)CCOCCOCCOCCOCCNc1cccc2c1C(=O)N(C1CCC(=O)NC1=O)C2=O)C(=O)O` (some centres unmarked) [PF, Pomalidomide-PEG4-RDFQSFRKMWPFFAM] ({X1-PEG4}-RDFQSFRKMWPFFAM-OH) was tested, and the “CD8+ lymphocyte activation as measured by IFNγ or TNFα” value was “greatest enhancement of CD8+ lymphocyte activation” and the “CD8+ lymphocyte proliferation (CFSE dilution)” value was “highest CD8+ lymphocyte proliferation”.
